Results from ChEMBL document CHEMBL4229447, “Synthesis and evaluation of thiomannosides, potent and orally active FimH inhibitors” (Bioorg Med Chem Lett, 2018).
Converted amounts (≈) assume the structure as drawn. The source made the active and inactive calls. The calls are words filed in the database; no cut-off is given here.

Key:
[1] = Metabolic stability in mouse liver microsomes after 30 mins; assay type: ADME, microsome; details: read-out: Stability
[2] = molecular target: Type 1 fimbrin D-mannose specific adhesin (Escherichia coli K-12) (UniProt P08191); experiment: Inhibition of Escherichia coli UTI89 FimH assessed as reduction in […] guinea pig erythrocyte hemagglutination titer
Type 1 fimbrin D-mannose specific adhesin (Escherichia coli K-12), sequence (P08191 whole entry): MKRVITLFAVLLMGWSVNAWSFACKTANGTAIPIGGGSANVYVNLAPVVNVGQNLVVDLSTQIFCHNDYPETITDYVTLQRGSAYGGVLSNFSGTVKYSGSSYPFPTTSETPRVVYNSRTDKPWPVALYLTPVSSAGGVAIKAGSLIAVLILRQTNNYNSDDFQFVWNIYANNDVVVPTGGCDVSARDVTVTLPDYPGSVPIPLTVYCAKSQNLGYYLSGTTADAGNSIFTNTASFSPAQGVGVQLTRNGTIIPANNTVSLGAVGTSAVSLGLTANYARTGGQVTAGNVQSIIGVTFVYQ

[3] = Solubility of the compound in pH 6.8 JP2 buffer; assay type: physicochemical
[4] = Lipophilicity, log D of the compound at pH 7.4; assay type: physicochemical; details: buffer
[5] = Permeability of the compound by PAMPA; assay type: ADME; details: read-out: permeability
[6] = Oral bioavailability in mouse at 10 mg/kg; assay type: ADME, organism-based; details: in vivo
[7] = Drug excretion in mouse urine at 10 mg/kg, po or 2 mg/kg, iv; assay type: ADME, organism-based; details: read-out: Drug excretion
[8] = molecular target: hERG (KCNH2) (Homo sapiens, UniProt Q12809); experiment: Inhibition of human ERG at 100 uM relative to control
hERG (KCNH2), sequence (Q12809 whole entry): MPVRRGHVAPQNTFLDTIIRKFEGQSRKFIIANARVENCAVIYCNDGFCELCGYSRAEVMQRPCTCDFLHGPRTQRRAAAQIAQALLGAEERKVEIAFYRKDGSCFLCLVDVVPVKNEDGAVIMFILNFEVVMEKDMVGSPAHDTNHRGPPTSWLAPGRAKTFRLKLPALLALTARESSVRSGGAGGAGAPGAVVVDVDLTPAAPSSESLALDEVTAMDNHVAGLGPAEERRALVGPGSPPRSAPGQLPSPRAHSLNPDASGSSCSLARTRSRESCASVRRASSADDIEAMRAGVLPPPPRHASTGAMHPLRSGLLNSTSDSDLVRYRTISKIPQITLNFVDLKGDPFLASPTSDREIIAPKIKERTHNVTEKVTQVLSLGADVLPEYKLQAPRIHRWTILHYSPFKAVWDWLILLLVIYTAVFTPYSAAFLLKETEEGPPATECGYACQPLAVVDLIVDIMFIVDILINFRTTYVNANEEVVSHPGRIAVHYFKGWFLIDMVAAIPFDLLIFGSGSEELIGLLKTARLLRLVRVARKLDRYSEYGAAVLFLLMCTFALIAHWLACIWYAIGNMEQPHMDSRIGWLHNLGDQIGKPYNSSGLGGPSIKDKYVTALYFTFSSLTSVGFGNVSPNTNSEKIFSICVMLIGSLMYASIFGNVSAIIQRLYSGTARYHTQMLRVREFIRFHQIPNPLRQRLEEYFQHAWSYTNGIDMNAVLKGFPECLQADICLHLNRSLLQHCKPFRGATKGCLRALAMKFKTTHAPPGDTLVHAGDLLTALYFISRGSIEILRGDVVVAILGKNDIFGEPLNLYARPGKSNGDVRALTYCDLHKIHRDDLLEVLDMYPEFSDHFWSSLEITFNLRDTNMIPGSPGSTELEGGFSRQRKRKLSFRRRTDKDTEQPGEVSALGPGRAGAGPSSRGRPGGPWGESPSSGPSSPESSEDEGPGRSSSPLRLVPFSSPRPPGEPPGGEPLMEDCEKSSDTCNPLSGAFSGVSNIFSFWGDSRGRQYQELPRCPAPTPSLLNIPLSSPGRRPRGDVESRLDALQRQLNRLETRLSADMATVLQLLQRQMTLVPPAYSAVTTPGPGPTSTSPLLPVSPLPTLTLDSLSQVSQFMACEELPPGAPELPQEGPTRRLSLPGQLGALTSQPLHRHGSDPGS

[9] = Mechanism based inactivation of CYP450 (unknown origin); assay type: ADME; details: human
[10] = tested on: Mus musculus; experiment: Time at which simulated urine concentration stays above its HAI titer in mouse at 1 to 100 mg/kg, po; assay type: ADME, organism-based; details: in vivo
[11] = tested on: Escherichia coli; experiment: Antibiofilm activity against Escherichia coli UTI89 preformed biofilms; assay type: functional, organism-based
[12] = tested on: Escherichia coli; experiment: Antibiofilm activity against Escherichia coli UTI89; assay type: functional, organism-based
[13] = tested on: Escherichia coli; experiment: Antibacterial activity against Escherichia coli UTI89 in mouse prophylactic UTI model assessed as reduction in bacterial count in urinary bladder at 1 to 100 mg/kg, po administered 30 mins prior to infection measured at 2 and 24 hrs post infection; assay type: functional, organism-based

Structure (SMILES)	remaining at 0.5 h [1] [%]	EC90 [2] [nM]	solubility [3] [µg/mL]	logD [4]	Papp [5] [×10⁻⁶ cm/s]	bioavailability [6] [%]	dose excreted [7] [%]	Activity [9]	Time [10]	IC50 [11] [µg/mL]	IC50 [12] [µg/mL]	inhibition at 100 µM [8] [%]	Activity [13]
CSc1ccc(-c2ccc(S[C@H]3O[C@H](CO)[C@@H](O)[C@H](O)[C@@H]3O)c(C)c2)cn1	61	600	150 (≈ 366 µM)	2.3	≤ 12	23	11.7	–	–	–	–	–	–
Cc1cc(-c2ccc(N3CCC3)nc2)ccc1S[C@H]1O[C@H](CO)[C@@H](O)[C@H](O)[C@@H]1O	91	1250	217 (≈ 518 µM)	2.1	–	14	7	–	–	–	–	–	–
Cc1cc(-c2ccc(=O)n(C)c2)ccc1S[C@H]1O[C@H](CO)[C@@H](O)[C@H](O)[C@@H]1O	72	1250	719 (≈ 1830 µM)	0.3	≤ 12	–	–	–	–	–	–	–	–
Cc1cc(-c2ccc(=O)n(CC(C)(C)O)c2)ccc1S[C@H]1O[C@H](CO)[C@@H](O)[C@H](O)[C@@H]1O	97	1250	729 (≈ 1610 µM)	0.5	≤ 12	0	5.3	–	–	–	–	–	–

More lines, main results first:

remaining at 0.5 h [1] [%]	EC90 [2] [nM]	solubility [3] [µg/mL]	logD [4]	Papp [5] [×10⁻⁶ cm/s]	bioavailability [6] [%]	dose excreted [7] [%]	Activity [9]	Time [10]	IC50 [11] [µg/mL]	IC50 [12] [µg/mL]	Structure (SMILES)	inhibition at 100 µM [8] [%]	Activity [13]
60	600	582 (≈ 1340 µM)	1.8	≤ 12	1	–	–	–	–	–	CCCCn1ccc(-c2ccc(S[C@H]3O[C@H](CO)[C@@H](O)[C@H](O)[C@@H]3O)c(C)c2)cc1=O	–	–
95	600	740 (≈ 1700 µM)	1.7	≤ 12	3	7	–	–	–	–	CCCCn1cc(-c2ccc(S[C@H]3O[C@H](CO)[C@@H](O)[C@H](O)[C@@H]3O)c(C)c2)ccc1=O	–	–
100	310	663 (≈ 1690 µM)	2.1	12 to 30	86	2.8	Not Active	<= 24 hr	0.56 (≈ 1.42 µM)	0.3 (≈ 0.762 µM)	COc1ccc(-c2ccc(S[C@H]3O[C@H](CO)[C@@H](O)[C@H](O)[C@@H]3O)c(C)c2)cn1	10.8	Active
93	1250	142 (≈ 312 µM)	1.2	≤ 12	15	24	–	–	–	–	Cc1cc(-c2ccc(=O)n(-c3ccccc3)c2)ccc1S[C@H]1O[C@H](CO)[C@@H](O)[C@H](O)[C@@H]1O	–	–
100	2500	668 (≈ 1640 µM)	0.7	≤ 12	–	–	–	–	–	–	CCn1cc(-c2ccc(S[C@H]3O[C@H](CO)[C@@H](O)[C@H](O)[C@@H]3O)c(C)c2)ccc1=O	–	–
95	2500	863 (≈ 1980 µM)	1.5	≤ 12	1	8.1	–	–	–	–	Cc1cc(-c2ccc(=O)n(CC(C)C)c2)ccc1S[C@H]1O[C@H](CO)[C@@H](O)[C@H](O)[C@@H]1O	–	–
